Measured values from ChEMBL document CHEMBL1201862, “PubChem BioAssay data set” (2004).
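Briefly, cells in 96-well plates were exposed to five compound concentrations for 48 h, and endpoints were estimated by linear interpolation. Here, GI50 denotes the concentration required for 50% inhibition of growth.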 The source made the active and inactive calls. No stated cut-off is given here; in the data, active = GI50 up to about 1.1 µM and inactive = higher.

Columns and labels:
Assay in all cases: DTP human tumour cell line panel, 48 h
[1] = test system: SF-295
[2] = test system: SK-MEL-5
[3] = test system: Malme-3M
[4] = test system: SW-620
[5] = test system: SK-MEL-2
[6] = test system: TK-10
[7] = test system: UO-31
[8] = test system: SR
[9] = test system: HCT-116
[10] = test system: SF-268
[11] = test system: Hs-578T
[12] = test system: SK-OV-3
[13] = test system: MDA-MB-435
[14] = test system: NCI-H23
[15] = test system: OVCAR-5
[16] = test system: OVCAR-8
[17] = test system: SK-MEL-28
[18] = test system: NCI-H522
[19] = test system: OVCAR-3
[20] = test system: MCF7

Measured: GI50

COc1cc(Br)c(CC2C3=C(CCN2C(=O)C2CCC2)CC(=O)CC3)cc1O (stereo unspecified)
inactive: [1] 33.5 µM | [2] 28.6 µM | [3] 28.3 µM | [4] 34.6 µM | [5] 36.1 µM | [6] 30.4 µM | [7] 55.6 µM | [8] 38.4 µM | [9] 30.3 µM | [10] 31.3 µM | [11] 26.1 µM | [12] 56.9 µM | [13] 17.1 µM | [14] 18.2 µM | [15] > 100 µM | [16] 38 µM | [17] 46.7 µM | [18] 14.5 µM | [19] 23.6 µM

O=C(Sc1c(-c2ccccc2)c(=O)n(-c2ccccc2)c(=S)n1-c1ccccc1)c1ccc(Cl)cc1
inactive: [1] > 100 µM | [20] 74.3 µM | [3] > 100 µM | [4] > 100 µM | [6] > 100 µM | [8] > 100 µM | [9] > 100 µM | [10] > 100 µM | [11] > 100 µM | [12] > 100 µM | [13] > 100 µM | [14] > 100 µM | [15] > 100 µM | [16] > 100 µM | [17] > 100 µM | [18] 81.5 µM | [19] > 100 µM

COP(=O)(OC)/C(=C/c1cn(C(C)=O)c2ccccc12)NC(C)=O
inactive: [1] 37.2 µM | [20] 8.91 µM | [2] 22.1 µM | [4] 18.5 µM | [5] 2.18 µM | [6] 58.2 µM | [8] 15.8 µM | [9] 26.4 µM | [11] 35.4 µM | [12] > 100 µM | [13] 4.62 µM | [14] 37.7 µM | [15] > 100 µM | [16] 32.2 µM | [17] 36.4 µM | [18] > 100 µM | [19] 21.3 µM

C=C(C)C1CC(=O)C(C)=C(O)C1 (stereo unspecified)
inactive: [1] > 100 µM | [20] > 100 µM | [2] > 100 µM | [3] > 100 µM | [4] > 100 µM | [5] > 100 µM | [6] > 100 µM | [7] > 100 µM | [8] > 100 µM | [9] > 100 µM | [10] > 100 µM | [11] > 100 µM | [12] > 100 µM | [14] > 100 µM | [15] > 100 µM | [16] > 100 µM | [17] > 100 µM | [18] > 100 µM

O=C1C(Cl)=C(N2C(=O)CCC2=O)C(=O)c2ccccc21
inactive: [1] > 100 µM | [20] 17.2 µM | [2] 19.8 µM | [4] 23.1 µM | [5] 39.8 µM | [6] 39.8 µM | [7] 15 µM | [8] 32 µM | [9] 22.8 µM | [10] 40.1 µM | [11] > 100 µM | [12] > 100 µM | [13] 19.8 µM | [14] 29 µM | [15] 20.4 µM | [16] 37.1 µM | [17] 20.4 µM | [18] 17.8 µM | [19] 17.9 µM

O=C(c1cccs1)N(C(=O)N1CCC(c2ccccc2)CC1)c1ccccc1
inactive: [1] 42.7 µM | [20] 35.5 µM | [2] 16.8 µM | [3] 15.8 µM | [4] 51.5 µM | [5] 13.8 µM | [6] 67 µM | [7] 18 µM | [9] 42.5 µM | [10] 73.6 µM | [11] 27.5 µM | [12] 88.3 µM | [13] 29.4 µM | [14] 40.6 µM | [15] > 100 µM | [16] 39.4 µM | [17] 43.9 µM | [19] 53.6 µM

CCC(c1ccc(OC)cc1)C1NC(=S)NC1=O (stereo unspecified)
inactive: [1] > 50 µM | [20] > 50 µM | [2] > 50 µM | [3] > 50 µM | [4] > 50 µM | [5] > 50 µM | [6] > 50 µM | [7] > 50 µM | [9] > 50 µM | [10] > 50 µM | [11] > 50 µM | [12] > 50 µM | [13] > 50 µM | [14] > 50 µM | [15] > 50 µM | [16] > 50 µM | [17] > 50 µM | [18] > 50 µM | [19] > 50 µM

CC(C)CNCCc1ccccn1
inactive: [1] > 100 µM | [20] > 100 µM | [2] > 100 µM | [3] > 100 µM | [4] > 100 µM | [5] > 100 µM | [6] > 100 µM | [7] > 100 µM | [9] > 100 µM | [10] > 100 µM | [11] > 100 µM | [12] > 100 µM | [13] > 100 µM | [14] > 100 µM | [15] > 100 µM | [16] > 100 µM | [17] > 100 µM | [18] > 100 µM | [19] > 100 µM
